Experimental data from patent US20230085307A1, “PYRIDAZINONE COMPOUND AND HERBICIDE” (NISSAN CHEMICAL CORPORATION, priority 2019, published 2023).

Columns and labels:
late watergrass = experiment: Test Example 1: herbicidal activity, application before weed generation under submerged conditions (Table 16, symbol A); format: in vivo, late watergrass (Echinochloa oryzicola); settings: for Herbicidal effect on A: late watergrass (grade 0-5): 320 g/ha applied herbicide
Procedure, shortened: (§1)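 Submerged Wagner pots (alluvial soil, 4 cm water) sown with weed seeds and planted with 2.5-leaf rice seedlings; emulsifiable concentrate diluted in water applied to water surface on sowing day. Held in greenhouse at 25-30 °C; injury scored 0-5 by herbicidal rate after three weeks.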

Japanese bulrush = experiment: Test Example 1: herbicidal activity, application before weed generation under submerged conditions (Table 16, symbol B); format: in vivo, Japanese bulrush (Schoenoplectus juncoides); settings: for Herbicidal effect on B: Japanese bulrush (grade 0-5): 320 g/ha applied herbicide
Procedure, shortened: as §1

oval-leafed pondweed = experiment: Test Example 1: herbicidal activity, application before weed generation under submerged conditions (Table 16, symbol C); format: in vivo, oval-leafed pondweed (Monochoria vaginalis); settings: for Herbicidal effect on C: oval-leafed pondweed (grade 0-5): 320 g/ha applied herbicide
Procedure, shortened: as §1

barnyard grass [1] = experiment: Test Example 3: herbicidal effect by foliage application, Wagner pot (Table 18, symbol H); format: in vivo, barnyard grass (Echinochloa crus-galli); settings: for herbicidal effect on H (barnyard grass), rating 0-5: 320 g/ha
Procedure, shortened: (§2)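 Plants were sown in alluvial soil held under 0.1–0.5 cm standing water and grown 14 days in a greenhouse at 25–30 °C. An emulsifiable formulation, water-diluted to the set dose, was then sprayed onto the foliage, and effects were scored three weeks later using previously defined criteria.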

Chinese sprangletop = experiment: Test Example 3: herbicidal effect by foliage application, Wagner pot (Table 18, symbol D); format: in vivo, chinese sprangletop (Leptochloa chinensis); settings: for herbicidal effect on D (Chinese sprangletop), rating 0-5: 320 g/ha
Procedure, shortened: as §2

rice flat sedge = experiment: Test Example 3: herbicidal effect by foliage application, Wagner pot (Table 18, symbol E); format: in vivo, rice flat sedge (Cyperus iria); settings: for herbicidal effect on E (rice flat sedge), rating 0-5: 320 g/ha
Procedure, shortened: as §2

southern crabgrass = experiment: Test Example 5: herbicidal effect by foliage application, plastic box (Table 20, symbol F); format: in vivo, southern crabgrass (Digitaria ciliaris); settings: foliage application, three weeks after application
Procedure, shortened: (§3)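 Foliar spray test: emulsion formulation diluted in water to a set application rate, sprayed onto 14-day-old plants raised in diluvial soil at 25° C to 30° C under glass. Both herbicidal effect and crop effect rated visually three weeks later.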

green foxtail = experiment: Test Example 5: herbicidal effect by foliage application, plastic box (Table 20, symbol G); format: in vivo, green foxtail (Setaria viridis); settings: foliage application, three weeks after application
Procedure, shortened: as §3

barnyard grass [2] = experiment: Test Example 5: herbicidal effect by foliage application, plastic box (Table 20, symbol H); format: in vivo, barnyard grass (Echinochloa crus-galli); settings: foliage application, three weeks after application
Procedure, shortened: as §3

wild oat = experiment: Test Example 5: herbicidal effect by foliage application, plastic box (Table 20, symbol I); format: in vivo, wild oat (Avena fatua); settings: foliage application, three weeks after application
Procedure, shortened: as §3

blackgrass = experiment: Test Example 5: herbicidal effect by foliage application, plastic box (Table 20, symbol J); format: in vivo, blackgrass (Alopecurus myosuroides); settings: foliage application, three weeks after application
Procedure, shortened: as §3

Italian ryegrass = experiment: Test Example 5: herbicidal effect by foliage application, plastic box (Table 20, symbol K); format: in vivo, Italian ryegrass (Lolium multiflorum); settings: foliage application, three weeks after application
Procedure, shortened: as §3

windgrass = experiment: Test Example 5: herbicidal effect by foliage application, plastic box (Table 20, symbol L); format: in vivo, windgrass (Apera spica-venti); settings: foliage application, three weeks after application
Procedure, shortened: as §3

velvetleaf = experiment: Test Example 5: herbicidal effect by foliage application, plastic box (Table 20, symbol M); format: in vivo, velvetleaf (Abutilon theophrasti); settings: foliage application, three weeks after application
Procedure, shortened: as §3

lambsquarters = experiment: Test Example 5: herbicidal effect by foliage application, plastic box (Table 20, symbol O); format: in vivo, lambsquarters (Chenopodium album); settings: foliage application, three weeks after application
Procedure, shortened: as §3

chickweed = experiment: Test Example 5: herbicidal effect by foliage application, plastic box (Table 20, symbol P); format: in vivo, common chickweed (Stellaria media); settings: foliage application, three weeks after application
Procedure, shortened: as §3

false cleavers = experiment: Test Example 5: herbicidal effect by foliage application, plastic box (Table 20, symbol Q); format: in vivo, false cleavers (Galium spurium); settings: foliage application, three weeks after application
Procedure, shortened: as §3

persian speedwell = experiment: Test Example 5: herbicidal effect by foliage application, plastic box (Table 20, symbol R); format: in vivo, Persian speedwell (Veronica persica); settings: foliage application, three weeks after application
Procedure, shortened: as §3

redroot pigweed = experiment: Test Example 5: herbicidal effect by foliage application, plastic box (Table 20, symbol N); format: in vivo, redroot pigweed (Amaranthus retroflexus); settings: foliage application, three weeks after application
Procedure, shortened: as §3

[3] = amount of applied herbicide 49 g/ha
[4] = amount of applied herbicide 45 g/ha

## COc1ccc(-c2sc3ccccc3c2-c2c(O)c(C)nn(C)c2=O)c(OC)c1 [1-070]
Late watergrass
  Herbicidal effect on A: late watergrass (grade 0-5): 3 (Herbicidal rate of 40% or more and less than 70%)
Japanese bulrush
  Herbicidal effect on B: Japanese bulrush (grade 0-5): 3 (Herbicidal rate of 40% or more and less than 70%)
oval-leafed pondweed
  Herbicidal effect on C: oval-leafed pondweed (grade 0-5): 1 (Herbicidal rate of 5% or more and less than 20%)
Barnyard grass [1]
  herbicidal effect on H (barnyard grass), rating 0-5: 1 (Herbicidal rate of 5% or more and less than 20%)
Chinese sprangletop
  herbicidal effect on D (Chinese sprangletop), rating 0-5: 0 (Herbicidal rate of 5% or less (almost no effect))
Rice flat sedge
  herbicidal effect on E (rice flat sedge), rating 0-5: 3 (Herbicidal rate of 40% or more and less than 70%)
Southern crabgrass; 320 g/ha
  herbicidal effect grade, F: southern crabgrass: 3 (Herbicidal rate of 40% or more and less than 70%)
Green foxtail; 320 g/ha
  herbicidal effect grade, G: green foxtail: 3 (Herbicidal rate of 40% or more and less than 70%)
Barnyard grass [2]; 320 g/ha
  herbicidal effect grade, H: barnyard grass: 0 (Herbicidal rate of 5% or less (almost no effect))
Wild oat; 320 g/ha
  herbicidal effect grade, I: wild oat: 1 (Herbicidal rate of 5% or more and less than 20%)
blackgrass; 320 g/ha
  herbicidal effect grade, J: blackgrass: 0 (Herbicidal rate of 5% or less (almost no effect))
Italian ryegrass; 320 g/ha
  herbicidal effect grade, K: Italian ryegrass: 1 (Herbicidal rate of 5% or more and less than 20%)
windgrass; 320 g/ha
  herbicidal effect grade, L: windgrass: 3 (Herbicidal rate of 40% or more and less than 70%)
velvetleaf; 320 g/ha
  herbicidal effect grade, M: velvetleaf: 2 (Herbicidal rate of 20% or more and less than 40%)
lambsquarters; 320 g/ha
  herbicidal effect grade, O: lambsquarters: 0 (Herbicidal rate of 5% or less (almost no effect))
chickweed; 320 g/ha
  herbicidal effect grade, P: chickweed: 5 (Herbicidal rate of 90% or more (almost completely withered))
False cleavers; 320 g/ha
  herbicidal effect grade, Q: false cleavers: 2 (Herbicidal rate of 20% or more and less than 40%)
Persian speedwell; 320 g/ha
  herbicidal effect grade, R: persian speedwell: 4 (Herbicidal rate of 70% or more and less than 90%)

## Cc1nn(C)c(=O)c(-c2c(-c3ccccc3OCC3CC3(F)F)sc3ccccc23)c1O (centres unmarked) [1-120]
Late watergrass
  Herbicidal effect on A: late watergrass (grade 0-5): 3 (Herbicidal rate of 40% or more and less than 70%)
Japanese bulrush
  Herbicidal effect on B: Japanese bulrush (grade 0-5): 0 (Herbicidal rate of 5% or less (almost no effect))
oval-leafed pondweed
  Herbicidal effect on C: oval-leafed pondweed (grade 0-5): 0 (Herbicidal rate of 5% or less (almost no effect))
Barnyard grass [1]
  herbicidal effect on H (barnyard grass), rating 0-5: 3 (Herbicidal rate of 40% or more and less than 70%)
Chinese sprangletop
  herbicidal effect on D (Chinese sprangletop), rating 0-5: 0 (Herbicidal rate of 5% or less (almost no effect))
Rice flat sedge
  herbicidal effect on E (rice flat sedge), rating 0-5: 2 (Herbicidal rate of 20% or more and less than 40%)
Southern crabgrass; AAH 320 g/ha
  F: southern crabgrass, herbicidal effect: 0 (Herbicidal rate of 5% or less (almost no effect))
Green foxtail; AAH 320 g/ha
  G: green foxtail, herbicidal effect: 0 (Herbicidal rate of 5% or less (almost no effect))
Barnyard grass [2]; AAH 320 g/ha
  H: barnyard grass, herbicidal effect: 0 (Herbicidal rate of 5% or less (almost no effect))
Wild oat; AAH 320 g/ha
  I: wild oat, herbicidal effect: 0 (Herbicidal rate of 5% or less (almost no effect))
blackgrass; AAH 320 g/ha
  J: blackgrass, herbicidal effect: 2 (Herbicidal rate of 20% or more and less than 40%)
Italian ryegrass; AAH 320 g/ha
  K: Italian ryegrass, herbicidal effect: 0 (Herbicidal rate of 5% or less (almost no effect))
windgrass; AAH 320 g/ha
  L: windgrass, herbicidal effect: 0 (Herbicidal rate of 5% or less (almost no effect))
velvetleaf; AAH 320 g/ha
  M: velvetleaf, herbicidal effect: 0 (Herbicidal rate of 5% or less (almost no effect))
Redroot pigweed; AAH 320 g/ha
  N: redroot pigweed, herbicidal effect: 0 (Herbicidal rate of 5% or less (almost no effect))
lambsquarters; AAH 320 g/ha
  O: lambsquarters, herbicidal effect: 0 (Herbicidal rate of 5% or less (almost no effect))
chickweed; AAH 320 g/ha
  P: chickweed, herbicidal effect: 4 (Herbicidal rate of 70% or more and less than 90%)
False cleavers; AAH 320 g/ha
  Q: false cleavers, herbicidal effect: 3 (Herbicidal rate of 40% or more and less than 70%)
Persian speedwell; AAH 320 g/ha
  R: persian speedwell, herbicidal effect: 5 (Herbicidal rate of 90% or more (almost completely withered))

## CCCC(=O)Oc1c(C)nn(C)c(=O)c1-c1c(-c2ccc(C(C)=NOC)cc2)sc2cc(F)ccc12 [3-018]
Late watergrass; [3]
  Herbicidal effect, A: late watergrass: 3 (Herbicidal rate of 40% or more and less than 70%)
Japanese bulrush; [3]
  Herbicidal effect, B: Japanese bulrush: 2 (Herbicidal rate of 20% or more and less than 40%)
oval-leafed pondweed; [3]
  Herbicidal effect, C: oval-leafed pondweed: 0 (Herbicidal rate of 5% or less (almost no effect))
Barnyard grass [1]; [4]
  herbicidal effect on H: barnyard grass: 3 (Herbicidal rate of 40% or more and less than 70%)
Chinese sprangletop; [4]
  herbicidal effect on D: Chinese sprangletop: 0 (Herbicidal rate of 5% or less (almost no effect))
Rice flat sedge; [4]
  herbicidal effect on E: rice flat sedge: 2 (Herbicidal rate of 20% or more and less than 40%)
Southern crabgrass; 45 g/ha
  F: southern crabgrass, herbicidal effect grade: 0 (Herbicidal rate of 5% or less (almost no effect))
Green foxtail; 45 g/ha
  G: green foxtail, herbicidal effect grade: 0 (Herbicidal rate of 5% or less (almost no effect))
Barnyard grass [2]; 45 g/ha
  H: barnyard grass, herbicidal effect grade: 0 (Herbicidal rate of 5% or less (almost no effect))
Wild oat; 45 g/ha
  I: wild oat, herbicidal effect grade: 0 (Herbicidal rate of 5% or less (almost no effect))
blackgrass; 45 g/ha
  J: blackgrass, herbicidal effect grade: 0 (Herbicidal rate of 5% or less (almost no effect))
Italian ryegrass; 45 g/ha
  K: Italian ryegrass, herbicidal effect grade: 0 (Herbicidal rate of 5% or less (almost no effect))
windgrass; 45 g/ha
  L: windgrass, herbicidal effect grade: 0 (Herbicidal rate of 5% or less (almost no effect))
velvetleaf; 45 g/ha
  M: velvetleaf, herbicidal effect grade: 0 (Herbicidal rate of 5% or less (almost no effect))
Redroot pigweed; 45 g/ha
  N: redroot pigweed, herbicidal effect grade: 3 (Herbicidal rate of 40% or more and less than 70%)
lambsquarters; 45 g/ha
  O: lambsquarters, herbicidal effect grade: 1 (Herbicidal rate of 5% or more and less than 20%)
chickweed; 45 g/ha
  P: chickweed, herbicidal effect grade: 1 (Herbicidal rate of 5% or more and less than 20%)
False cleavers; 45 g/ha
  Q: false cleavers, herbicidal effect grade: 0 (Herbicidal rate of 5% or less (almost no effect))
Persian speedwell; 45 g/ha
  R: persian speedwell, herbicidal effect grade: 3 (Herbicidal rate of 40% or more and less than 70%)
